{
  "source": "paper PMC8394243",
  "about": "(Biomolecules, 2021)",
  "key": {"[1]": {"test_system": "human sputum leucocyte elastase (neutrophil elastase, NE)", "experiment": "500 nM of NE in 1 X TBS", "conditions": "37 °C, up to four hours"}, "[2]": {"molecular_target": "human sputum leucocyte elastase (neutrophil elastase, NE) (Homo sapiens, UniProt P08246)", "sequence (P08246 30-247 limits assumed)": "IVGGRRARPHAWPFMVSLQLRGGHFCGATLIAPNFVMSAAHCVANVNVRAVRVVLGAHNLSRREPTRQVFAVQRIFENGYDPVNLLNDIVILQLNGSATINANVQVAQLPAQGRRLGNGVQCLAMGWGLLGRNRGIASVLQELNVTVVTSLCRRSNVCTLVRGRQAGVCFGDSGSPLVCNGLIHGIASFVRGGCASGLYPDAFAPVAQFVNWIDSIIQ", "conditions": "500 nM NE, 37 °C, 0-4 h, hourly samples; peptide 500 μg/mL or parental molar equivalent (160 or 120 μM); SDS-PAGE, Coomassie, visual", "experimental": "The method for reaction termination was dependent on subsequent experiments/analysis. For samples intended for investigation of peptide activity using in vitro experiments the reaction was terminated via addition of 1 mM of the serine protease inhibitor pefabloc (Merck, Gillingham, UK), which was added to all groups including the NE alone groups. Samples intended for peptide degradation analysis via SDS-PAGE or mass spectrometry were boiled at 95 °C for ten minutes using a heat block to terminate the reaction.\nPeptide samples were separated by sodium dodecyl sulphate-polyacrylamide gel electrophoresis (SDS-PAGE) under denaturing and reducing conditions using 4–12% Invitrogen NuPAGE Novex Bis-Tris precast gels (Thermo Fisher Scientific, Loughborough, UK) and the Invitrogen XCell SureLock Mini-Cell (Thermo Fisher Scientific, Loughborough, UK). An aliquot of 10 μL peptide samples was incubated with 4 μL NuPAGE lithium dodecyl sulphate (LDS) sample buffer (Thermo Fisher Scientific) and 2 μL of […] dithiothreitol (DTT) (Fluorochem, Hadfield, UK) for ten minutes at 95 °C and 15 μL of sample mixture loaded per lane and 5 μL of SeeBlue Plus2 pre-stained protein standard (Thermo Fisher Scientific, Loughborough, UK) loaded in at least one lane. The samples were run using 1X 2-morpholinoethanesulfonic acid (MES)-SDS running buffer (Thermo Fisher Scientific, Loughborough, UK). Electrophoresis was performed under a constant current of 125 mA for 40–60 min. The gel was stained using Biosafe Coomassie Brilliant Blue G-250 stain (Biorad, Watford, UK) for 60 min, washed and destained in water overnight and imaged using a Syngene G:box and GeneSnap software (Syngene, Cambridge, UK)."}, "[3]": {"experiment": "CF sputum (diluted 100-fold in 1X tris-buffered saline (TBS))", "conditions": "CF patients, 37 °C, up to four hours"}, "neutrophil elastase": {"molecular_target": "neutrophil elastase (Homo sapiens, UniProt P08246)", "sequence (P08246 30-247 limits assumed)": "as above", "conditions": "500 μg/mL peptide, 500 nM NE in 1X TBS, 4 h, 37 °C; MALDI-TOF-MS", "description": "The method for reaction termination was dependent on subsequent experiments/analysis. […] Samples intended for peptide degradation analysis via SDS-PAGE or mass spectrometry were boiled at 95 °C for ten minutes using a heat block to terminate the reaction.\nThis service was provided by the University of Dundee (Dundee, UK)."}, "[4]": {"conditions": "SDS-PAGE; for Effect of pefabloc (serine protease inhibitor) on degradation in CF sputum, 4 h / Effect of pefabloc (serine protease inhibitor) on degradation in CF sputum, 24 h: 1 mM pefabloc pre-incubated 30 min with sputum (100-fold in TBS)", "description": "Sputum from Pseudomonas-infected CF patients was obtained anonymously from the adult CF Centre at Belfast City Hospital. Sputum samples were in excess to requirements for diagnostic purposes. Permission to use sputum samples, which would have been disposed of, for validation purposes was given by the Director of R&D, Belfast Health and Social Care Trust. Sputum was frozen immediately at −80 °C and used the next day after thawing at room temperature.\nSamples were transferred to a fresh Eppendorf at regular time-points (0, 1, 2, 3, 4, 18 and 24, as appropriate) and boiled on a heat block at 95 °C for ten minutes to terminate the reaction. […] CF sputum (diluted 100-fold in 1X TBS) was incubated with 0.1 mM E64, 5 mM EDTA or 1 mM pefabloc for 30 min prior to addition of peptides. Following the addition of peptide, the samples were incubated for four or 24 h at 37 °C. An aliquot was taken at 0, 4 or 24 h and boiled for ten minutes at 95 °C to terminate the reaction. Samples were stored at 4 °C until analysed by SDS-PAGE.\nPeptide samples were separated by sodium dodecyl sulphate-polyacrylamide gel electrophoresis (SDS-PAGE) under denaturing and reducing conditions using 4–12% Invitrogen NuPAGE Novex Bis-Tris precast gels (Thermo Fisher Scientific, Loughborough, UK) and the Invitrogen XCell SureLock Mini-Cell (Thermo Fisher Scientific, Loughborough, UK). An aliquot of 10 μL peptide samples was incubated with 4 μL NuPAGE lithium dodecyl sulphate (LDS) sample buffer (Thermo Fisher Scientific) and 2 μL of 500 nM dithiothreitol (DTT) (Fluorochem, Hadfield, UK) for ten minutes at 95 °C and 15 μL of sample mixture loaded per lane and 5 μL of SeeBlue Plus2 pre-stained protein standard (Thermo Fisher Scientific, Loughborough, UK) loaded in at least one lane. The samples were run using 1X 2-morpholinoethanesulfonic acid (MES)-SDS running buffer (Thermo Fisher Scientific, Loughborough, UK). Electrophoresis was performed under a constant current of 125 mA for 40–60 min. The gel was stained using Biosafe Coomassie Brilliant Blue G-250 stain (Biorad, Watford, UK) for 60 min, washed and destained in water overnight and imaged using a Syngene G:box and GeneSnap software (Syngene, Cambridge, UK)."}, "[5]": {"conditions": "5 mM EDTA pre-incubated 30 min with sputum (100-fold in TBS), then peptide 24 h at 37 °C"}},
  "note": "Ends that are not written are not given here.",
  "data": [
    {"sequence": "KRFKKFFKRLLKSVRRAVKKFRKK", "values": [
      {"measurement": "cleaved bond", "setting": "[1]", "value": "V-R"}
    ]},
    {"sequence": "KRFKKFFKRLLKSV [Sn1bN]", "values": [
      {"measurement": "Cleavage by neutrophil elastase", "setting": "[2]", "value": "did not result in obvious cleavage"}
    ]},
    {"sequence": "KRFKKFFKKVKKSVKKRLKKIFKKPMVIGVTIPF", "values": [
      {"measurement": "cleaved bond", "setting": "[1]", "value": "V-K and I-F"}
    ]},
    {"sequence": "KRFKKFFKRLLKSV", "values": [
      {"measurement": "not cleaved", "setting": "[3]", "value": "did not exhibit obvious degradation when incubated with CF sputum after 4 h"}
    ]},
    {"sequence": "KRFKKFFKKLKNSVKKRAKKFFKKPRVIGVSIPF [SnE1]", "values": [
      {"measurement": "Cleavage by neutrophil elastase", "setting": "[2]", "value": "gradual transition from one band of larger molecular weight to one or more bands of smaller molecular weight"},
      {"measurement": "Neutrophil elastase cleavage sites (peptide cleaved after each site marked)", "setting": "neutrophil elastase", "value": "KRFKKFFKKLKNSV│[…]│GVSIPF"}
    ]},
    {"sequence": "KFFKRLLKSVRRAVKKFRKKPRLIGLSTLL [Sn1]", "values": [
      {"measurement": "Effect of pefabloc (serine protease inhibitor) on degradation in CF sputum, 4 h", "setting": "[4]; then peptide 4 h at 37 °C", "value": "prevented only by the inhibitor pefabloc"}
    ]},
    {"sequence": "KFFKRLLKSVRRAVKKFRKK [Sn1a]", "values": [
      {"measurement": "Effect of pefabloc (serine protease inhibitor) on degradation in CF sputum, 4 h", "setting": "[4]; then peptide 4 h at 37 °C", "value": "prevented only by the inhibitor pefabloc"}
    ]},
    {"sequence": "KRFKKFFKKLKNSVKKRAKKFFKKPRVIGVSIPF", "values": [
      {"measurement": "cleaved bond", "setting": "[1]", "value": "V-K and I-G"}
    ]},
    {"sequence": "KRFKKFFKKLKNSV [SnE1N]", "values": [
      {"measurement": "Cleavage by neutrophil elastase", "setting": "[2]", "value": "appeared to remain intact"},
      {"measurement": "Effect of pefabloc (serine protease inhibitor) on degradation in CF sputum, 24 h", "setting": "[4]; then peptide 24 h at 37 °C", "value": "prevented degradation"},
      {"measurement": "Effect of EDTA (MMP inhibitor) on degradation in CF sputum, 24 h", "setting": "[4]; [5]", "value": "prevented degradation"}
    ]},
    {"sequence": "KRFKKFFKKLKNSVKKRAKKFFKKPRVI [SnE1-F]", "values": [
      {"measurement": "Cleavage by neutrophil elastase", "setting": "[2]", "value": "gradual transition from one band of larger molecular weight to one or more bands of smaller molecular weight"},
      {"measurement": "Effect of E64 (cysteine protease inhibitor) on degradation in CF sputum, 24 h", "setting": "[4]; 0.1 mM E64 pre-incubated 30 min with sputum (100-fold in TBS), then peptide 24 h at 37 °C", "value": "did not prevent"},
      {"measurement": "Effect of pefabloc (serine protease inhibitor) on degradation in CF sputum, 4 h", "setting": "[4]; then peptide 4 h at 37 °C", "value": "prevented in the presence of pefabloc"},
      {"measurement": "Effect of pefabloc (serine protease inhibitor) on degradation in CF sputum, 24 h", "setting": "[4]; then peptide 24 h at 37 °C", "value": "prevented the degradation"},
      {"measurement": "Effect of EDTA (MMP inhibitor) on degradation in CF sputum, 24 h", "setting": "[4]; [5]", "value": "did not prevent"},
      {"measurement": "Degradation in CF sputum within 4 h", "setting": "[4]; CF sputum diluted 100-fold in 1X TBS, 37 °C, 0-4 h, peptide 500 μg/mL or parental molar equivalent (160 or 120 μM), Coomassie, visual", "value": "some degradation"}
    ]},
    {"sequence": "KRFKKFFKKVKKSVKKRLKKIFKKPMVIGVTIPF [SnV1]", "values": [
      {"measurement": "Effect of pefabloc (serine protease inhibitor) on degradation in CF sputum, 4 h", "setting": "[4]; then peptide 4 h at 37 °C", "value": "prevented only by the inhibitor pefabloc"}
    ]},
    {"sequence": "KRFKKFFKRLLKSVRRAVKKFRKK [Sn1b]", "values": [
      {"measurement": "Cleavage by neutrophil elastase", "setting": "[2]", "value": "rapidly cleaved"},
      {"measurement": "Effect of EDTA (MMP inhibitor) on degradation in CF sputum, 4 h", "setting": "[4]; 5 mM EDTA pre-incubated 30 min with sputum (100-fold in TBS), then peptide 4 h at 37 °C", "value": "inhibited"}
    ]}
  ]
}
